Patent US20110280958A1 (priority 2010, published 2011)

What was measured:
Alternaria solani = conditions: in vivo
Phytophthora infestans = conditions: in vivo
Venturia inaequalis = assay: Venturia test (apples)/preventive; type: in vivo; conditions: preventive spray, evaluated 10 days after inoculation
Procedure: Solvent: 24.5 parts by weight of acetone • 24.5 parts by weight of dimethylacetamide
Emulsifier: 1 part by weight of alkylaryl polyglycol ether
To produce a suitable preparation of active compound, 1 part by weight of active compound is mixed with the stated amounts of solvent and emulsifier, and the concentrate is diluted with water to the desired concentration. To test for preventive activity, young plants are sprayed with the preparation of active compound at the stated rate of application. After the spray coating has dried on, the plants are inoculated with an aqueous conidia suspension of the causal agent of apple scab (Venturia inaequalis) and then remain for 1 day in an incubation cabinet at approximately 20° C. and a relative atmospheric humidity of 100%. The plants are then placed in a greenhouse at approximately 21° C. and a relative atmospheric humidity of approximately 90%. The test is evaluated 10 days after the inoculation. 0% means an efficacy which corresponds to that of the untreated control, while an efficacy of 100% means that no disease is observed.

| Structure (SMILES) | Efficacy in % found (Alternaria solani) [%] | Efficacy in % found (Phytophthora infestans) [%] | Efficacy in % found (Venturia inaequalis; 250 ppm a.i.) [%] | Efficacy in % found (Venturia inaequalis; 25 ppm a.i.) [%] |
| --- | --- | --- | --- | --- |
| O=S(=O)([O-])[O-].[Mg+2] [(1-2), magnesium sulphate] | 0 | – | – | – |
| O=S(=O)([O-])[O-].[Mn+2] [(3-2), manganese sulphate] | 0 | 0 | – | – |
| O=S(=O)([O-])[O-].[Fe+2] [(3-3), iron sulphate] | 35 | – | 43 | – |
| O=S(=O)([O-])[O-].[Zn+2] [(3-7), zinc sulphate] | 23 | 35 | 19 | – |
| Cn1c(=O)c2sc3c(=O)n(C)c(=O)c3sc2c1=O [(I-1), 2,6-dimethyl-1H,5H-[1,4]dithiino[2,3-c:5,6-c′]dipyrrole-1,3,5,7(2H,6H)-tetrone] | – | 9 | – | 32 |
